Measured values taken from patent US20080319002A1, “Xanthine Derivatives a Useful as Muscarinic Receptor Antagonists” (RANBAXY LABORATORIES LIMITED, priority 2004, published 2008).

Compound	melting point [°C]
O=C(NC[C@@H]1[C@H]2CN(CCc3ccc4c(c3)CCO4)C[C@@H]12)C1c2ccccc2Oc2ccccc21 [Compound No. 11, N-[(1α,5α,6α)-3-(2-(2,3-dihydro-benzofuran-5-yl)-ethyl)-3-aza-bicyclo[3.1.0]hex-6-ylmethyl]-9H-Xanthene-9-carboxylic acid amide]	165
O=C(N[C@H]1[C@@H]2CNC[C@@H]21)C1c2ccccc2Oc2ccccc21 [Compound No. 6]	183 to 190
